Experimental findings from patent US12479843B2, “Spiro ring-containing quinazoline compounds” (WIGEN BIOMEDICINE TECHNOLOGY (SHANGHAI) CO., LTD., priority 2019, dated 2025) are described below.

One assay has as its system H358 cells. Description: Antiproliferative activity against H358 cells (Cell Titer Glow, ultra-low attachment plate). It is filed as cell-based. Particulars: Homo sapiens, NCI-H358, 72 h, 96-well ultra-low attachment plate, three days after addition of compound, Cell Titer Glow. Here is the method:
2500 H358 cells were seeded in a 96-well ultra-low attachment plate (corning, 7007). After one day of growth, a serially diluted compound (a maximum concentration of 5 μM, 5-fold dilution, a total of five doses) was added. Three days after the addition of the compound, Cell Titer Glow (Promega, G9681) was added to evaluate pellet growth, and the IC50 value was calculated.

A further assay relates to pERK level in H358 cells. Description: pERK and ERK protein content assay in H358 cells (ELISA). It is filed as cell-based. Particulars: Homo sapiens, NCI-H358, compound 1 μM, 24 h, pERK/ERK ratio compared with DMSO group, read-out: Inhibition rate (%) of pERK level. Here is the method: H358 cells were seeded in a 24-well plate. After one day of growth, a test compound (at a concentration of 1 μM) was added. After 24 h of action of the compound, the cells were lysed, and the cell lysate was transferred to a 96-well ELISA plate. The levels of pERK and ERK in the lysate were measured using an ELISA kit (abcam 176660). The ratio of pERK to ERK was calculated and compared with that of the DMSO group, and the percentage of inhibition of pERK activity by the compound was calculated.

With `C=C(F)C(=O)N1CC2(CCN(c3nc(O[C@H]4CCN(C)C4)nc4c(OCC(F)(F)F)c(-c5c(C)ccc6[nH]ncc56)c(C5CC5)cc34)CC2)C1` [Compound 64], the IC50 (as a rule, the concentration needed to halve the response being measured) in the assay with H358 cells lay within 300 to 1000 nM. For the same compound, the inhibition – broadly, how much of the control response was suppressed – at 1 µM in the assay on pERK level in H358 cells fell in the range of 50 to 90%.
For `C=CC(=O)N1CC2(CCN(c3nc(OC4CCN(CCOC)CC4)nc4c(OCC(F)(F)F)c(-c5c(C)ccc6[nH]ncc56)c(F)cc34)CC2)C1` [Compound 11], in that order: under 300 nM and over 90%.
For `C=C(F)C(=O)N1CC2(CCN(c3nc(OC[C@@H]4COCCN4CCOC)nc4c(OCC(F)(F)F)c(-c5c(C)ccc6[nH]ncc56)c(C5CC5)cc34)CC2)C1` [Compound 118], in that order: under 300 nM and over 90%.
For `C=CC(=O)N1CC2(CCN(c3nc(N(C)CCN4CC(O)C4)nc4c(OCC(F)(F)F)c(-c5c(C)ccc6[nH]ncc56)c(C5CC5)cc34)CC2)C1` [Compound 229], in that order: under 300 nM and over 90%.
Regarding `C=CC(=O)N1CC2(CCN(c3nc(N4CCC5(CCN(C)CC5)C4)nc4c(OCC(F)(F)F)c(-c5c(C)ccc6[nH]ncc56)c(C5CC5)cc34)CC2)C1` [Compound 161], the half-inhibitory concentration (IC50) in the assay on H358 cells was under 300 nM. The inhibition at 1 µM in the assay on pERK level in H358 cells was over 90%.
For `C=CC(=O)N1CC2(CCN(c3nc(OC[C@@H]4COCCN4CCOC)nc4c(OCC(F)(F)F)c(-c5c(C)ccc6[nH]ncc56)c(C5CC5)cc34)CC2)C1` [Compound 117], in that order: under 300 nM and over 90%.
Compound `C=CC(=O)N1CC2(CCN(c3nc(O[C@@H]4CCS(=O)(=O)C[C@H]4N(C)C)nc4c(OCC(F)(F)F)c(-c5c(C)ccc6[nH]ncc56)c(C5CC5)cc34)CC2)C1` [Compound 318] had an IC50 in the assay with H358 cells of under 300 nM. Besides, the inhibition at 1 µM in the assay on pERK level in H358 cells is over 90%.
On the same counts, the results for `C=CC(=O)N1CC2(CCN(c3nc(N4CC5(CCN(CCCOC)CC5)C4)nc4c(OCC(F)(F)F)c(-c5c(C)ccc6[nH]ncc56)c(C5CC5)cc34)CC2)C1` [Compound 95] are under 300 nM and over 90%.
For `C=CC(=O)N1CC2(CCN(c3nc(N4CC(N5CCC5)C4)nc4c(OCC(F)(F)F)c(-c5c(C)c(C)cc6[nH]ncc56)c(C5CC5)cc34)CC2)C1` [Compound 217], in that order: under 300 nM and over 90%.
In the assay on H358 cells, `C=CC(=O)N1CC2(CCN(c3nc(N4CC5(CCN(CC6CC6)CC5)C4)nc4c(OCC(F)(F)F)c(-c5c(C)ccc6[nH]ncc56)c(C5CC5)cc34)CC2)C1` [Compound 83] came in with a half-maximal inhibitory concentration (IC50) of under 300 nM. For the same compound, the inhibition at 1 µM in the assay on pERK level in H358 cells is over 90%.
`C=CC(=O)N1CC2(CCN(c3nc(N4CC[C@@H](N5CCCCC5)C4)nc4c(OCC(F)(F)F)c(-c5c(C)ccc6[nH]ncc56)c(C5CC5)cc34)CC2)C1` [Compound 208] came in with an IC50 in the assay with H358 cells of under 300 nM. Besides, the inhibition at 1 µM in the assay on pERK level in H358 cells was over 90%.
On the same counts, the results for `C=CC(=O)N1CC2(CCN(c3nc(N4CC5(C4)C[S+]([O-])C5)nc4c(OCC(F)(F)F)c(-c5c(C)ccc6[nH]ncc56)c(C5CC5)cc34)CC2)C1` [Compound 305] are 300 to 1000 nM and 50 to 90%.
On the same counts, the results for `C=CC(=O)N1CC2(CCN(c3nc(N4CC5(CC(N(C)C)C5)C4)nc4c(OCC(F)(F)F)c(-c5c(C)ccc6[nH]ncc56)c(C5CC5)cc34)CC2)C1` [Compound 286] are under 300 nM and over 90%.
For `C=CC(=O)N1CC2(CCN(c3nc(OC4CCN(CCOC)CC4)nc4c(OCC(F)(F)F)c(-c5c(C)ccc6nc[nH]c(=O)c56)c(C5CC5)cc34)CC2)C1` [Compound 43], in that order: under 300 nM and over 90%.
`C=CC(=O)N1CC2(CCN(c3nc(N4CC(N5C[C@H](O)C[C@H]5C)C4)nc4c(OCC(F)(F)F)c(-c5c(C)ccc6[nH]ncc56)c(C5CC5)cc34)CC2)C1` [Compound 260] displayed an IC50 in the assay on H358 cells of under 300 nM. In the assay on pERK level in H358 cells, the inhibition at 1 µM was over 90%.
For `C=CC(=O)N1CC2(CCN(c3nc(N4CC(N5CCCC5)C4)nc4c(OCC(F)(F)F)c(-c5c(C)c(F)cc6[nH]ncc56)c(C=C)cc34)CC2)C1` [Compound 224], in that order: under 300 nM and over 90%.
For `C=CC(=O)N1CC2(CCN(c3nc(N4CC[C@H](N5CCOCC5)C4)nc4c(OCC(F)(F)F)c(-c5c(C)ccc6[nH]ncc56)c(C5CC5)cc34)CC2)C1` [Compound 209], in that order: under 300 nM and over 90%.
For `C#Cc1cc2c(N3CCC4(CC3)CN(C(=O)C=C)C4)nc(OC3CCN(CCOC)CC3)nc2c(OCC(F)(F)F)c1-c1c(C)ccc2[nH]ncc12` [Compound 16], in that order: 300 to 1000 nM and 50 to 90%.
`C=CC(=O)N1CC2(CCN(c3nc(N4CC(N5CCCCC5)C4)nc4c(OCC(F)(F)F)c(-c5c(C)ccc6[nH]ncc56)c(C5CC5)cc34)CC2)C1` [Compound 177] yielded an IC50 in the assay on H358 cells of under 300 nM. The inhibition at 1 µM with pERK level in H358 cells was over 90%.
For `C=CC(=O)N1CC2(CCN(c3nc(N4CC(N5CC[C@@H](C)C5)C4)nc4c(OCC(F)(F)F)c(-c5c(C)c(F)cc6[nH]ncc56)c(C5CC5)cc34)CC2)C1` [Compound 328], in that order: under 300 nM and over 90%.
For `C=CC(=O)N1CC2(CCN(c3nc(N4CC(N5CCOCC5)C4)nc4c(OCC(F)(F)F)c(-c5c(C)ccc6[nH]ncc56)c(C5CC5)cc34)CC2)C1` [Compound 146], in that order: under 300 nM and over 90%.
For `C=C(F)C(=O)N1CC2(CCN(c3nc(N4CC5(CN(CCOC)C5)C4)nc4c(OCC(F)(F)F)c(-c5c(C)ccc6[nH]ncc56)c(C5CC5)cc34)CC2)C1` [Compound 72], in that order: under 300 nM and over 90%.
As for `C=CC(=O)N1CC2(CCN(c3nc(N(C)CCN4CC[C@H](F)C4)nc4c(OCC(F)(F)F)c(-c5c(C)ccc6[nH]ncc56)c(C5CC5)cc34)CC2)C1` [Compound 236], the IC50 with H358 cells is under 300 nM. In addition, the inhibition at 1 µM in the assay on pERK level in H358 cells was over 90%.
For `C=CC(=O)N1CC2(CCN(c3nc(N4CC(N5CC[C@H](OC)C5)C4)nc4c(OCC(F)(F)F)c(-c5c(C)ccc6[nH]ncc56)c(C5CC5)cc34)CC2)C1` [Compound 174], in that order: under 300 nM and over 90%.
On the same counts, the results for `C=CC(=O)N1CC2(CCN(c3nc(N4CC(N5CCC(OC)CC5)C4)nc4c(OCC(F)(F)F)c(-c5c(C)ccc6[nH]ncc56)c(C5CC5)cc34)CC2)C1` [Compound 179] are under 300 nM and over 90%.
With `C=CC(=O)N1CC2(CCN(c3nc(N4CCN(C5CCOCC5)CC4)nc4c(OCC(F)(F)F)c(-c5c(C)ccc6[nH]ncc56)c(C5CC5)cc34)CC2)C1` [Compound 154], the IC50 in the assay with H358 cells was under 300 nM. Further, the inhibition at 1 µM in the assay on pERK level in H358 cells was over 90%.
On the same counts, the results for `C=C(F)C(=O)N1CC2(CCN(c3nc(OC4CC5(C4)CN(CCOC)C5)nc4c(OCC(F)(F)F)c(-c5c(C)ccc6[nH]ncc56)c(C5CC5)cc34)CC2)C1` [Compound 126] are under 300 nM and over 90%.
In turn, `C=CC(=O)N1CC2(CCN(c3nc(N4CC5(CC(N6CC[C@@H](C)C6)C5)C4)nc4c(OCC(F)(F)F)c(-c5c(C)ccc6[nH]ncc56)c(C5CC5)cc34)CC2)C1` [Compound 293] had an IC50 in the assay on H358 cells of under 300 nM. The inhibition at 1 µM in the assay with pERK level in H358 cells is over 90%.
For `C=CC(=O)N1CC2(CCN(c3nc(N4CC(N5C6CCC5CC6)C4)nc4c(OCC(F)(F)F)c(-c5c(C)ccc6[nH]ncc56)c(C5CC5)cc34)CC2)C1` [Compound 270], in that order: under 300 nM and over 90%.
On the same counts, the results for `C=CC(=O)N1CC2(CCN(c3nc(N4CC5(CN(CC6CC6)C5)C4)nc4c(OCC(F)(F)F)c(-c5c(C)ccc6[nH]ncc56)c(C5CC5)cc34)CC2)C1` [Compound 157] are under 300 nM and over 90%.
For `C=C(F)C(=O)N1CC2(CCN(c3nc(OC4CCN(CCOC)CC4)nc4c(OCC(F)(F)F)c(-c5c(F)cccc5F)c(C5CC5)cc34)CC2)C1` [Compound 54], in that order: under 300 nM and over 90%.
`C=CC(=O)N1CC2(CCN(c3nc(N4CC5(C4)[C@H](F)CCN5C)nc4c(OCC(F)(F)F)c(-c5c(C)ccc6[nH]ncc56)c(C5CC5)cc34)CC2)C1` [Compound 274]: the IC50 in the assay with H358 cells was under 300 nM. For the same compound, the inhibition at 1 µM in the assay with pERK level in H358 cells is over 90%.
On the same counts, the results for `C=CC(=O)N1CC2(CCN(c3nc(OC4CCN(CCOC)CC4)nc4c(OCC(F)(F)F)c(-c5c(C)ccc6[nH]ncc56)ccc34)CC2)C1` [Compound 10] are 300 to 1000 nM and 50 to 90%.
In the assay on H358 cells, `C=CC(=O)N1CC2(CCN(c3nc(N(C)CCN4CC(C#N)C4)nc4c(OCC(F)(F)F)c(-c5c(C)ccc6[nH]ncc56)c(C5CC5)cc34)CC2)C1` [Compound 231] yielded an IC50 of 300 to 1000 nM. Moreover, the inhibition at 1 µM in the assay on pERK level in H358 cells was 50 to 90%.
For `C=CC(=O)N1CC2(CCN(c3nc(N4CC5(CCN(CCOC)CC5)C4)nc4c(OCC(F)(F)F)c(-c5c(C)ccc6[nH]ncc56)c(C=C)cc34)CC2)C1` [Compound 338], in that order: under 300 nM and over 90%.
For the compound `C=C(F)C(=O)N1CC2(CCN(c3nc(OC4CCN(CCOC)CC4)nc4c(OCC(F)(F)F)c(-c5c(F)ccc6cn[nH]c56)c(C5CC5)cc34)CC2)C1` [Compound 34], in the assay with H358 cells, the IC50 is under 300 nM. Besides, in the assay on pERK level in H358 cells, the inhibition at 1 µM was over 90%.
